Key:
CYP1A2 = target: T1, CYP1A2 (Homo sapiens, UniProt P05177); test: CYP1A2 inhibition, probe/drug metabolism in human liver microsomes (LC-MS/MS); conditions: for Residual activity (%) CYP1A2: HLM 0.5 mg/mL
T1 sequence (P05177 1-516): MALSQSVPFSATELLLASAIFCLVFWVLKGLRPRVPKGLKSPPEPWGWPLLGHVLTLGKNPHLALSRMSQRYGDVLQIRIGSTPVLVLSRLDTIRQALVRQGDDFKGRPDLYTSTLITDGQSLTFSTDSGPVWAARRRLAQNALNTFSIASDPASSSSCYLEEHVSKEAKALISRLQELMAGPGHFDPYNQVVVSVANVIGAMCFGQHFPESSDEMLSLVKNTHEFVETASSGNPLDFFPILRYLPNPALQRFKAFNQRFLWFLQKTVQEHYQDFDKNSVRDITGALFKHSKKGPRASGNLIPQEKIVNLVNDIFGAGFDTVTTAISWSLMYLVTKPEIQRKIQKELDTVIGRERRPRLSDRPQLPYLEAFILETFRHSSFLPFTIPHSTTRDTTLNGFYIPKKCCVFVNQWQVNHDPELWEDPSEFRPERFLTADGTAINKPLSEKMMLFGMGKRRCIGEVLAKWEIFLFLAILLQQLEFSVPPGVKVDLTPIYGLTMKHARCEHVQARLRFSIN
Method: (§1) The total volume of the in vitro metabolic incubation system is 200 μL. The probe substrate concentration in the system is shown in Supplementary Table S1. […] The reaction sample was preheated in a constant temperature mixer at 37°C. Then NADP^+ was added to the system to initiate the reaction. The reaction time is 30 min, and 100 μL acetonitrile will be added on time to quickly terminate the reaction, followed by centrifugation at 4°C and 20,000 g for 20 min. The supernatant was analyzed using liquid chromatography tandem mass spectrometry (LC-MS/MS), and the activity of CYP enzymes was evaluated by the generation of probe metabolites. The mass spectrometry information of probe substrates is shown in Supplementary Table S3.
(§2) The isolated triterpenoids (1–66) were used to establish a compounds library. The inhibitory effects of 66 triterpenoids from G. lucidum on seven subtypes of CYP enzymes (CYP1A2, 2A6, 2D6, 2B6, 2C9, 2C19, 3A4) were evaluated followed the above-mentioned experimental procedures.
(§3) For 16 clinical drugs metabolized by CYP enzymes, potential DDI studies were conducted on triterpenoids (6, 25) of G. lucidum, and IC50 values were measured.
(§4) Clinical drugs: Phenacetin, melatonin, clozapine and riluzole are metabolized by CYP1A2. Bupropion, artemisinin, efavirenz and sertraline are metabolized by CYP2B6. Diclofenac, valsartan, glimepiride and glibenclamide are metabolized by CYP2C9. Midazolam, imatinib, simvastatin and diltiazem are metabolized by CYP3A4.
(§5) Table S1. The information of probes for CYPs activity assay
(§6) Table S2. Information of clinical drugs

CYP2D6 = CYP2D6 (Homo sapiens, UniProt P10635); test: CYP2D6 inhibition, dextromethorphan probe in human liver microsomes; conditions: for Residual activity (%) CYP2D6: HLM 0.5 mg/mL, dextromethorphan 5 μM, 30 min
Method: as §1, §2, §5

CYP2A6 = target: T2, CYP2A6 (Homo sapiens, UniProt P11509); test: CYP2A6 inhibition, coumarin probe in human liver microsomes; conditions: for activity at 30 min: human, human liver microsomes, pH 7.4, probe coumarin 2 μM, Residual activity (%) CYP2A6, HLM 0.5 mg/mL
T2 sequence (P11509 1-494): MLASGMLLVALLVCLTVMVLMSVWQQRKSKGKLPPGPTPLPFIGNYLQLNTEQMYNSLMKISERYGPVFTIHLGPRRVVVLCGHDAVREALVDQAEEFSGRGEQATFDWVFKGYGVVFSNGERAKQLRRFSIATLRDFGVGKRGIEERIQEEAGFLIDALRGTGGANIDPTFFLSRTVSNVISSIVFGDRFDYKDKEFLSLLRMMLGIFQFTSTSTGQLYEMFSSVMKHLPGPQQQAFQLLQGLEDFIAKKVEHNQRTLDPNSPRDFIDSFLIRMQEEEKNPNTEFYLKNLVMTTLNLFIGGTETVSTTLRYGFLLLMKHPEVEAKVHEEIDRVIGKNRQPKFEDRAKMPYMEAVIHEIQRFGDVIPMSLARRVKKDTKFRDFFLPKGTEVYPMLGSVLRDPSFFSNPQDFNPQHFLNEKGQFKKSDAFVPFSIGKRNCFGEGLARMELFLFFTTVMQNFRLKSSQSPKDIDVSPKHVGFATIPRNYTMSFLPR
Method: as §1, §2, §5

CYP2B6 = target: T3, CYP2B6 (Homo sapiens, UniProt P20813); test: CYP2B6 inhibition, probe/drug metabolism in human liver microsomes; conditions: bupropion 75 μM, 30 min; for activity at 30 min: human, human liver microsomes, pH 7.4, probe bupropion 75 μM, Residual activity (%) CYP2B6, HLM 0.5 mg/mL
T3 sequence (P20813 1-491): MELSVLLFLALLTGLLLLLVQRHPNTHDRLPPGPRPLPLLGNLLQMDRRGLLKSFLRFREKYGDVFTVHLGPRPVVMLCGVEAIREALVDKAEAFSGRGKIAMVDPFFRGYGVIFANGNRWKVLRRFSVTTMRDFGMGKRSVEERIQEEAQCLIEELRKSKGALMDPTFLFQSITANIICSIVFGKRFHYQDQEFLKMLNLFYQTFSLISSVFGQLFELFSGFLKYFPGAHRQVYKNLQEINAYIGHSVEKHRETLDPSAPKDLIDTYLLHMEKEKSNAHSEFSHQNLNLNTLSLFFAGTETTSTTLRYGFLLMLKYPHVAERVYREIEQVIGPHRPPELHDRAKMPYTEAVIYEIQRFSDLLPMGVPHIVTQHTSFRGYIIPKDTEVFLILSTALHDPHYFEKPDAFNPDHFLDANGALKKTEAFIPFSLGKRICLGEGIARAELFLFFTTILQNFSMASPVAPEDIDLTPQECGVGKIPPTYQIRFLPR
Method: as §1, §2, §3, §4, §5, §6

CYP2C9 = CYP2C9 (Homo sapiens, UniProt P11712); test: CYP2C9 inhibition, probe/drug metabolism in human liver microsomes; conditions: diclofenac 4 μM, 30 min; for activity at 30 min: human, human liver microsomes, pH 7.4, probe diclofenac 4 μM, Residual activity (%) CYP2C9, HLM 0.5 mg/mL
Method: as §1, §2, §3, §4, §5, §6

CYP2C19 = CYP2C19 (Homo sapiens, UniProt P33261); test: CYP2C19 inhibition, S-mephenytoin probe in human liver microsomes; conditions: S-mephenytoin 50 μM, 30 min; for activity at 30 min: human, human liver microsomes, pH 7.4, probe S-mephenytoin 50 μM, Residual activity (%) CYP2C19, HLM 0.5 mg/mL
Method: as §1, §2, §5

in vivo = conditions: rat
Method: SD rats (Male, weighing 220 g ± 20 g) were divided into a dichloromethane administration group and a control group with 6 rats in each group. Both groups were given probe substrate drugs by gavage. […] 200 μL blood samples were taken from the rat jugular vein at 0.167, 0.333, 0.5, 0.75, 1, 2, 3, 4, 6, 8, 10, and 12 h after the administration of the probe substrate. After precipitation of proteins by with 600 μL acetonitrile via centrifugation […] at 4°C at 3,500 rpm for 10 min. The supernatant was detected using liquid chromatography-tandem mass spectrometry (LC-MS/MS). The mass spectrometry information of the probe drug is shown in Supplementary Table S3. Animal experiments in this study were approved by the Animal Ethics Committee of the Dalian Medical University.

[1] = gavage, drug alone (control group), n = 6

CYP2D6, sequence (P10635 whole entry): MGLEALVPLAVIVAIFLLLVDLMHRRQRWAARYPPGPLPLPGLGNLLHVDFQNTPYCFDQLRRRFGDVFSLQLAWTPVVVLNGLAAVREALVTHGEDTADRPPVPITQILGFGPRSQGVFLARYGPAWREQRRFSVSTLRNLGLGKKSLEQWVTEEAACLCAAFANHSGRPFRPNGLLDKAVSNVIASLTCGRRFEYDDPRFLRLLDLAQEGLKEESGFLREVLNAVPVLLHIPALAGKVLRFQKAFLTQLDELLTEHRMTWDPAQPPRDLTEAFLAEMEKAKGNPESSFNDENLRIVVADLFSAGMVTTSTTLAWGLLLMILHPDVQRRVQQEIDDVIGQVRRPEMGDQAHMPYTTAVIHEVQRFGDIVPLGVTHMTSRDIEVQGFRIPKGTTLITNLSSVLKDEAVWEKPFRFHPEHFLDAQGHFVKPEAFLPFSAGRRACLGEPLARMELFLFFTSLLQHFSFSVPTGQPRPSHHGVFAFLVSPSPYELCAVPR
CYP2C9, sequence (P11712 whole entry): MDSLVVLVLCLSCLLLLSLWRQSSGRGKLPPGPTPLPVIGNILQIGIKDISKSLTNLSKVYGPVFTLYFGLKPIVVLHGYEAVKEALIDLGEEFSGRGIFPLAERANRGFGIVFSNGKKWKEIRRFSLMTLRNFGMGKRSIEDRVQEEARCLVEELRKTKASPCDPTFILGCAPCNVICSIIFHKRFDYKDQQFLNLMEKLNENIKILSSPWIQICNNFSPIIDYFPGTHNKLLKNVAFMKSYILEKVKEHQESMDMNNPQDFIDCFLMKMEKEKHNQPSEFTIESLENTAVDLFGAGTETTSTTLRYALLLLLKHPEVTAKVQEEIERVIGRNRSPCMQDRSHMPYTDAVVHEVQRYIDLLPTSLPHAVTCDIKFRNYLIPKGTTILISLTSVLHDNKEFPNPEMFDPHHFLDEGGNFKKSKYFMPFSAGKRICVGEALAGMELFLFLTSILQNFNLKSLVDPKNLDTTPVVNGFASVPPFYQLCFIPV
CYP2C19, sequence (P33261 whole entry): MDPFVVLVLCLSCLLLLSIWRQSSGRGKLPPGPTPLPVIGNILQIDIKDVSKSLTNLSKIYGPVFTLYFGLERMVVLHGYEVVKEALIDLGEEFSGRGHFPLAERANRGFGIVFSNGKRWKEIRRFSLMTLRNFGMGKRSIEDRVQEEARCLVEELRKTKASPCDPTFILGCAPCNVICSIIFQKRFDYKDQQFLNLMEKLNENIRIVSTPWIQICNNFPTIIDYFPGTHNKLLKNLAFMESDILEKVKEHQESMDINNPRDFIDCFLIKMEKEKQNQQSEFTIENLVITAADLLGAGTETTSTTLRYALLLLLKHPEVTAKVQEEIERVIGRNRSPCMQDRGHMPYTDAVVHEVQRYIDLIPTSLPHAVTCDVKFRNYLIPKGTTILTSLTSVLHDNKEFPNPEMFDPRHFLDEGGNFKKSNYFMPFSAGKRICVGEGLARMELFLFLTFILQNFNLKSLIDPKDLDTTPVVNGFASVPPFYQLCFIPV

SMILES | activity at 30 min (CYP2A6) [%] | activity at 30 min (CYP2B6) [%] | activity at 30 min (CYP2C9) [%] | activity at 30 min (CYP2C19) [%] | Residual activity (%) CYP1A2 (CYP1A2; phenacetin 40 μM, 30 min) [%] | Residual activity (%) CYP2D6 (CYP2D6) [%] | AUM (in vivo; male, SD, in vivo) | Cl_F_ (in vivo; male, SD, in vivo) | AUC(0-inf) (in vivo; male, SD, in vivo, po) [ng·h/mL] | AUC(0-t) (in vivo; male, SD, in vivo, po) [ng·h/mL] | Cmax (in vivo; male, SD, in vivo, po) [ng/mL] | Tmax (in vivo; male, SD, in vivo, po) [min] | Vz_F (in vivo; male, SD, in vivo, po) | also measured
CC(CC(=O)CC(C)C1CC(O)C2(C)C3=C(C(=O)CC12C)C1(C)CCC(=O)C(C)(C)C1CC3=O)C(=O)O (centres unmarked) [Compound 45] | 90.1 ± 2.87 | 83 ± 3.05 | 73.5 ± 6.44 | 70.3 ± 4.05 | – | – | – | – | – | – | – | – | – | IC50 (CYP1A2; IC50 against CYP 1A2, substrate phenacetin 40 μM, HLM): 18.2 ± 1.33 µM; activity at 30 min (CYP1A2; human, human liver microsomes, pH 7.4, probe phenacetin 40 μM, Residual activity (%) CYP1A2, HLM 0.5 mg/mL, phenacetin 40 μM, 30 min): 48.2 ± 4.71%; activity at 30 min (CYP2D6; human, human liver microsomes, pH 7.4, probe dextromethorphan 5 μM, Residual activity (%) CYP2D6, HLM 0.5 mg/mL): 93.7 ± 8.49%
CC(CC(=O)CC(C)C1CC(=O)C2(C)C3=C(C(=O)CC12C)C1(C)CCC(O)C(C)(C)C1CC3=O)C(=O)O (centres unmarked) [Compound 54] | 82.6 ± 2.79 | 84.1 ± 1.32 | 88.45 ± 0.51 | 88.3 ± 3.63 | 47.09±3.09 | 108.69±3.90 | – | – | – | – | – | – | – | IC50 at 30 min (CYP1A2; human, human liver microsomes, pH 7.4, probe phenacetin 40 μM, IC50 against CYP 1A2, substrate phenacetin 40 μM, HLM): 24.7 ± 3.38 µM
CC(CC(=O)CC(C)C1CC(=O)C2(C)C3=C(C(=O)CC12C)C1(C)CCC(O)C(C)(C)C1CC3=O)C(=O)O (centres unmarked) [Compound 55] | – | – | – | – | 71.10±3.67 | 86.79±5.16 | – | – | – | – | – | – | – | Residual activity (%) CYP2A6 (CYP2A6; HLM 0.5 mg/mL, coumarin 2 μM, 30 min): 74.81±0.70%; Residual activity (%) CYP2B6 (CYP2B6; HLM 0.5 mg/mL): 77.81±6.09%; Residual activity (%) CYP2C9 (CYP2C9; HLM 0.5 mg/mL): 96.25±6.96%; Residual activity (%) CYP2C19 (CYP2C19; HLM 0.5 mg/mL): 104.32±8.04%
O=C(O)Cc1ccccc1Nc1c(Cl)cccc1Cl [Dic, diclofenac] | – | – | – | – | – | – | 7,332.465 ± 1,560.101 h*ng/mL | 4,276.363 ± 388.068 mL/h/kg | 2350 | 2270 | 912 ± 68.1 | 17.5 ± 6.12 | 12,244.920 ± 1707.693 mL/kg | –
Cc1ncc2n1-c1ccc(Cl)cc1C(c1ccccc1F)=NC2 [MDZ, midazolam] | – | – | – | – | – | – | – | – | 2340 | 2300 | 1630 | 40 ± 7.74 | – | AUM (in vivo; [1]): 4,197.381 ± 670.735 h*ng/mL; Cl_F_ (in vivo; [1]): 4,313.217 ± 497.661 mL/h/kg; Vz_F (in vivo; [1]): 8,995.776 ± 2,395.823 mL/kg
CCOc1ccc(NC(C)=O)cc1 [PHE, Phenacetin] | – | – | – | – | – | – | 692.744 ± 85.4782 ng·h/mL | 14,264.696 ± 912.942 mL/h/kg | 352 ± 22.6 | 342 ± 22.6 | 364 ± 38.1 | 37.5 ± 8.22 | 31,514.554 ± 6,298.860 mL/kg | –

Source: paper PMC11605156, “Triterpenoids from Ganoderma lucidum inhibit cytochrome P450 enzymes interfering with the metabolic process of specific clinical drugs” (Frontiers in Pharmacology, 2024)
